Consider 16 compounds from patent US11530186B2, “Inhibitors for the β-catenin / T-cell factor protein-protein interaction” (H. LEE MOFFITT CANCER CENTER AND RESEARCH INSTITUTE, INC., priority 2018, dated 2022).

Where two headings read alike, the source gives them in different places.

The assay has as its target T1, β-catenin/Tcf protein-protein interaction (Homo sapiens, UniProt P35222).
T1 construct: Wild-type β-catenin (residues 138-781) were cloned into a pET-28b vector; 6×histidine (C); made in house; host or cells: E. coli BL21 DE3
T1 sequence (P35222 138-781): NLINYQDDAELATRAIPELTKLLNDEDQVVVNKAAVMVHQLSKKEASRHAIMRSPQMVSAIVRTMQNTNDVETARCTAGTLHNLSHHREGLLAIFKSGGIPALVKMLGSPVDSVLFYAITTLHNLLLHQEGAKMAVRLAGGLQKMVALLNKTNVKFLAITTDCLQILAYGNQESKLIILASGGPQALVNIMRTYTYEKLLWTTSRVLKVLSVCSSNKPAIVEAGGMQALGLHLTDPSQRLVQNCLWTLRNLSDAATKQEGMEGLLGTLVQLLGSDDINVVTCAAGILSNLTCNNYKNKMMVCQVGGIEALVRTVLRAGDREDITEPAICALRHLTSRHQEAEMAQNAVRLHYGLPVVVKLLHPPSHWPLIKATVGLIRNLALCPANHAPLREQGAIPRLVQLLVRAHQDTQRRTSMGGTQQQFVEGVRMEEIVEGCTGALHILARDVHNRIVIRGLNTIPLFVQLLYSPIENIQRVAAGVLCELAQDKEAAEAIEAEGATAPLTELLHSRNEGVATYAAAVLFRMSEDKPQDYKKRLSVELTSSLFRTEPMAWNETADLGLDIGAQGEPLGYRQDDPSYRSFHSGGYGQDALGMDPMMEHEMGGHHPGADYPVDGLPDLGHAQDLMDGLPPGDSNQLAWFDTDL
Kind of assay: FP competitive inhibition assay. It counts as binding. The procedure: Protein Expression and Purification. Wild-type β-catenin (residues 138-781) were cloned into a pET-28b vector carrying a C-terminal 6×histidine (Novagen) and transformed into E. coli BL21 DE3 (Novagen). Cells were cultured in LB medium with 30 μg/mL kanamycin until the OD600 was approximately 0.8, and then protein expression was induced with 400 μM of IPTG at 20° C. overnight. Cells were lysed by sonication. The proteins were purified by Ni-NTA affinity chromatography (30210, Qiagen) and dialyzed against a buffer containing 20 mM of Tris (pH 8.8), 100 mM NaCl, 10% glycerol, and 3 mM DTT. The purity of β-catenin was set to >95% as determined by SDS-PAGE gel analysis. Native non-denaturing gel electrophoresis experiment and the thermal-shift assay on an iCycler iQ Real Time Detection System (Bio-Rad) were performed for each purified protein. In the thermal shift assay, protein unfolding was evaluated through measuring the fluorescence changes of fluorescent dye Sypro Orange with purified β-catenin proteins. A temperature increment of 1° C./min was applied to monitor protein stability and detect protein aggregation. CD spectra were measured on a J-815 spectropolarimeter (Jasco). All spectra were recorded using a 1 mm path-length quartz cell. The CD spectra were averaged over three scans, and the wavelength was scanned from 260 to 190 nm in step of 1 nm. All spectra were recorded at room temperature, and the baseline was corrected by subtracting the CD spectra of a blank control containing all of the substances except protein. Samples were prepared at a concentration around 1-5 μM in a buffer of 10 mM potassium phosphate and 100 mM potassium fluoride at pH 7.0 to ensure that the transmission of light through the sample was not restricted. All proteins were stable, and no aggregation was observed under storage or assay conditions. Proteins were aliquoted and stored at −80° C. C-terminally fluorescein-labeled human Tcf4 (residues 7-51) was synthesized and HPLC purified with purity >95%. The structures were validated by LC/MS (liquid chromatography/mass spectrometry).
FP Assays. The procedures for the FP competitive inhibition assays have been described previously (Zhang, M.; Huang, Z.; Yu, B.; Ji, H. New homogeneous high-throughput assays for inhibitors of β-catenin/Tcf protein-protein interactions Anal. Biochem. 2012, 424, 57-63; Zhang, M.; Catrow, J. L.; Ji, H. High-throughput selectivity assays for small-molecule inhibitors of β-catenin/T-cell factor protein-protein interactions. ACS Med. Chem. Lett. 2013, 4, 306-311). Briefly, all of the tested compounds were prepared as 10 mM DMSO stocks. In the primary screen, the concentrations of the compounds and DMSO were set to 50 μM and 1% (v/v). Only the compounds which FP signal decreases were greater than 50% in the single-point β-catenin/Tcf assay were evaluated by counter screen. […] In the FP competitive inhibition assay, 10 nM human β-catenin and 2.5 nM of C-terminally fluorescein-labeled human Tcf4 were incubated in an assay buffer of 137 mM NaCl, 2.7 mM KCl, 10 mM Na2HPO4, 2 mM KH2PO4, 100 μg/mL of bovine γ-globulin, and 0.01% Triton-X100 for 15 min at 4° C. Bovine γ-globulin and Triton-X100 were included in the assay buffer to decrease the likelihood of compound acting by aggregate formation. Different concentrations of the tested compounds in the assay buffer were added to each test plate to make a final volume of 100 μL. Each assay plate was covered black and gently mixed on an orbital shaker at 4° C. for 1.5 h to reach equilibrium before the polarization values were read. The IC50 value was determined by nonlinear least-square analysis of GraphPad Prism 5.0. The Ki values were derived (Nikolovska-Coleska, Z.; Wang, R.; Fang, X.; Pan, H.; Tomita, Y.; Li, P.; Roller, P. P.; Krajewski, K.; Saito, N. G.; Stuckey, J. A.; Wang, S. Development and optimization of a binding assay for the XIAP BIR3 domain using fluorescence polarization. Anal. Biochem. 2004, 332, 261-273). […]

Setting [1] is: Assay 1, mean ± SD (n = 3), read-out: Ki ± SD, Assay 1.
[2] abbreviates: Assay 2, mean ± SD (n = 3), read-out: Ki ± SD, Assay 2.
[3] abbreviates: Assay 3, mean ± SD (n = 3), read-out: Ki ± SD, Assay 3.
Setting [4] is: Assay 4, mean ± SD (n = 3), read-out: Ki ± SD, Assay 4.

On to `O=C(O)c1ccc2c(c1)c(CCc1ccccc1)c(CCc1nc3ccccc3s1)n2CCc1nn[nH]n1` [Compound 25, 1-(2-(2H-tetrazol-5-yl)ethyl)-2-(2-(benzo[d]thiazol-2-yl)ethyl)-3-phenethyl-1H-indole-5-carboxylic acid], for which the Ki under setting [1] stood at 11 ± 3.9 µM and the inhibition constant (Ki) under setting [2] stood at 4.1 ± 0.88 µM.

For the compound `O=C(O)c1ccc2c(c1)c(CCc1ccc(F)cc1)c(CCc1nc3ccccc3s1)n2CCc1nn[nH]n1` [Compound 26, 1-(2-(2H-tetrazol-5-yl)ethyl)-2-(2-(benzo[d]thiazol-2-yl)ethyl)-3-(4-fluorophenethyl)-1H-indole-5-carboxylic acid], the Ki under setting [1] was 6.7 ± 1.1 µM and the inhibitory constant (Ki) under setting [2] came out at 2.7 ± 0.54 µM.

Consider `Cc1ccc(CCc2c(CCc3nc4ccccc4s3)n(CCc3nn[nH]n3)c3ccc(C(=O)O)cc23)cc1` [Compound 28, 1-(2-(2H-tetrazol-5-yl)ethyl)-2-(2-(benzo[d]thiazol-2-yl)ethyl)-3-(4-methylphenethyl)-1H-indole-5-carboxylic acid], for which the inhibitory constant (Ki) under setting [1] was determined as 2.3 ± 0.54 µM and the inhibition constant Ki under setting [2] came out at 0.87 ± 0.33 µM.

Turning to `O=C(O)c1ccc2c(c1)c(CCc1ccc(Cl)cc1)c(CCc1nc3ccccc3[nH]1)n2CCc1nn[nH]n1` [Compound 29, 2-(2-(1H-benzo[d]imidazol-2-yl)ethyl)-1-(2-(2H-tetrazol-5-yl)ethyl)-3-(4-chlorophenethyl)-1H-indole-5-carboxylic acid], the Ki came out at 11 ± 1.8 µM under setting [1] and 5.2 ± 1.7 µM under setting [2].

On to `O=C(O)c1ccc2c(c1)c(CCc1ccc(Cl)cc1)c(CCc1nc3cc(Cl)ccc3s1)n2CCc1nn[nH]n1` [Compound 30, 1-(2-(2H-tetrazol-5-yl)ethyl)-2-(2-(5-chlorobenzo[d]thiazol-2-yl)ethyl)-3-(4-chlorophenethyl)-1H-indole-5-carboxylic acid], for which the inhibitory constant (Ki) reads like this: under setting [1], 1.1 ± 0.27 µM; under setting [2], 1.6 ± 0.63 µM; under setting [3], 2.5 ± 1.5 µM.

On to `COc1ccc2sc(CCc3c(CCc4ccc(Cl)cc4)c4cc(C(=O)O)ccc4n3CCc3nn[nH]n3)nc2c1` [Compound 31, 1-(2-(2H-tetrazol-5-yl)ethyl)-3-(4-chlorophenethyl)-2-(2-(5-methoxybenzo[d]thiazol-2-yl)ethyl)-1H-indole-5-carboxylic acid], for which the inhibition constant (Ki) by setting is: under setting [1], 2 ± 0.4 µM; under setting [2], 4.1 ± 0.6 µM; under setting [3], 4.1 ± 1.2 µM; under setting [4], 1.6 ± 0.12 µM.

Turning to `COCCOc1ccc2sc(CCc3c(CCc4ccc(Cl)cc4)c4cc(C(=O)O)ccc4n3CCc3nn[nH]n3)nc2c1` [Compound 32, 1-(2-(2H-tetrazol-5-yl)ethyl)-3-(4-chlorophenethyl)-2-(2-(5-(2-methoxyethoxy)benzo [d]thiazol-2-yl)ethyl)-1H-indole-5-carboxylic acid], the inhibitory constant (Ki) by setting is: under setting [1], 6.1 ± 1.5 µM; under setting [2], 7.5 ± 1.9 µM; under setting [3], 3.7 ± 1.3 µM.

In the case of `O=C(O)c1ccc2c(c1)c(CCc1ccc3ccccc3c1)c(CCc1nc3ccccc3s1)n2CCc1nn[nH]n1` [Compound 36, 1-(2-(2H-tetrazol-5-yl)ethyl)-2-(2-(benzo[d]thiazol-2-yl)ethyl)-3-(2-(naphthalen-2-yl)ethyl)-1H-indole-5-carboxylic acid], the Ki under setting [1] is 0.61 ± 0.065 µM.

On to `O=C(O)CCn1c(CCc2nc3ccccc3s2)c(CCc2ccccc2)c2cc(C(=O)O)ccc21` [Compound 37, 2-(2-(Benzo[d]thiazol-2-yl)ethyl)-1-(2-carboxyethyl)-3-phenethyl-1H-indole-5 carboxylic acid], for which the Ki under setting [1] was found to be 28 ± 6.8 µM.

Regarding `O=C(O)CCn1c(CCc2nc3ccccc3s2)c(CCc2ccc(F)cc2)c2cc(C(=O)O)ccc21` [Compound 38, 2-(2-(benzo[d]thiazol-2-yl)ethyl)-1-(2-carboxyethyl)-3-(4-fluorophenethyl)-1H-indole-5-carboxylic acid], the Ki under setting [1] was found to be 19 ± 2.8 µM.

Consider `O=C(O)CCn1c(CCc2nc3ccccc3s2)c(CCc2ccc(Cl)cc2)c2cc(C(=O)O)ccc21` [Compound 39, 2-(2-(benzo[d]thiazol-2-yl)ethyl)-1-(2-carboxyethyl)-3-(4-chlorophenethyl)-1H-indole-5-carboxylic acid], for which the inhibition constant Ki reads like this: under setting [1], 7.9 ± 1.5 µM; under setting [2], 1.4 ± 0.45 µM.

For the compound `Cc1ccc(CCc2c(CCc3nc4ccccc4s3)n(CCC(=O)O)c3ccc(C(=O)O)cc23)cc1` [Compound 40, 2-(2-(benzo[d]thiazol-2-yl)ethyl)-1-(2-carboxyethyl)-3-(4-methylphenethyl)-1H-indole-5-carboxylic acid], the Ki under setting [1] was found to be 5.8 ± 1.3 µM.

`O=C(O)CCn1c(CCc2nc3ccccc3[nH]2)c(CCc2ccc(Cl)cc2)c2cc(C(=O)O)ccc21` [Compound 41, 2-(2-(1H-benzo[d]imidazol-2-yl)ethyl)-1-(2-carboxyethyl)-3-(4-chlorophenethyl)-1H-indole-5-carboxylic acid]: the inhibition constant Ki by setting is: under setting [1], 36 ± 9.5 µM; under setting [2], 10 ± 2.2 µM.

With `Cc1ccc(CCc2c(CCc3nc4ccccc4[nH]3)n(CCC(=O)O)c3ccc(C(=O)O)cc23)cc1` [Compound 42, 2-(2-(1H-benzo[d]imidazol-2-yl)ethyl)-1-(2-carboxyethyl)-3-(4-methylphenethyl)-1H-indole-5-carboxylic acid], the Ki reads like this: under setting [1], 29 ± 3.3 µM; under setting [2], 2 ± 1.2 µM.

As for `COCCOc1ccc2sc(CCc3c(CCc4ccc(Cl)cc4)c4cc(C(=O)NCc5ccc(Cl)cc5)ccc4n3CCc3nn[nH]n3)nc2c1` [Compound 46, 1-(2-(2H-tetrazol-5-yl)ethyl)-N-(4-chlorobenzyl)-3-(4-chlorophenethyl)-2-(2-(5-(2-methoxy-ethoxy)benzo[d]thiazol-2-yl)ethyl)-1H-indole-5-carboxamide], the Ki under setting [1] worked out at 1.3 ± 0.4 µM.

Take `COc1ccc2sc(CCc3c(CCc4ccc(Cl)cc4)c4cc(C(=O)Nc5ccc(Cl)cc5)ccc4n3CCc3nn[nH]n3)nc2c1` [Compound 47, 1-(2-(2H-tetrazol-5-yl)ethyl)-3-(4-chlorophenethyl)-N-(4-chlorophenyl)-2-(2-(5-methoxybenzo[d]thiazol-2-yl)ethyl)-1H-indole-5-carboxamide]: the Ki runs as follows: under setting [1], 7.4 ± 1.4 µM; under setting [2], 10 ± 0.66 µM; under setting [3], 2.1 ± 0.26 µM; under setting [4], 2.1 ± 0.27 µM.
